The text below walks through data of patent publication US8354225B1, “Amplification of oligonucleotides containing non-standard nucleobases” (priority 2004, dated 2013).

The conditions of data set [1]: cited from earlier work.
For data set [2], the system named is d(puADA) in the template (T3). As to the kind of experiment: Paused-extension screen of polymerases. Format: biochemical. The conditions noted are these: template T3, primer P3, dNTPs, 72° C., 15 seconds. How it is done:
FIG. 6. Use of Taq and DeepVent (DV) exo^+ polymerases as sequencing tools. Both polymerases were incubated with template T3, primer P3, and dNTPs.P=primer alone, 19 nts in length. […] Deep Vent exo appears to be degrading the primer, and perhaps the product as well.
Radiolabeled primer P3 (1 pmol) was mixed with template T3 (2 pmol), Thermopol buffer (1.5 μL, 10×), dATP, dCTP, dTTP, dGTP (final conc. 10 μM each), and water to a final volume of 14 μL. The mixture was heated to 95° C. for 10 min. and allowed to cool to ambient for 1 hour. The respective polymerase (Taq, Vent, Deep Vent, Vent exo^−, or Deep Vent exo−) was added (1 μL, 2 U/μL) and the reaction incubated at 72° C. for 15 seconds. The reaction was quenched with 20 mM EDTA in PAGE loading buffer (15 μL) and subsequently analyzed by electrophoresis on a 20% PAGE gel. The gel was analyzed using the MolecularImager software.

For the compound `O=c1[nH]c(=O)c2[nH]cnc2[nH]1` [pu(ADA), xanthine], the “pKa of the heterocycle (acid)” value in data set [1] (free heterocycle) was “ca. 5.7”. For the compound `Nc1ccnc(N)n1` [py(DAD), 2,4-diaminopyrimidine], the “pKa of the conjugate acid” value in data set [1] (protonated heterocycle) is given as “≈ 6.7”. Turning to “Taq polymerase: Taq polymerase used as sequencing tool”, the “elongation upon encountering dX / d(puADA) in the template” value in data set [2] is on record as “terminates the elongation of a primer”; in data set [2] (listed as Taq) it was “abort elongation”.
